Our source for the TD50 and carcinogen call values is PubChem BioAssay AID1745844 (Carcinogenic Potency Database (CPDB), 2022).

Calls of active or inactive are those of the source. The rule behind the calls is not given here.

This data set relates to rodent lifetime carcinogenesis bioassay, tumor incidence TD50. As to the kind of experiment: chronic cancer bioassays in animals – CPDB, compiled studies (AID 1745844).

Regarding `O=S(=O)(O)O`, the TD50 is, setting by setting: (hamster, strain Syrian Golden, females, in drinking water, site: cecum, lesion: one or several types, types not named, dosed 108 weeks, study length 108 weeks) 115 mg/kg/day (inactive); (hamster, strain Syrian Golden, females, in drinking water, site: thyroid gland, lesion: adenoma, dosed 108 weeks, study length 108 weeks) 124 mg/kg/day (inactive); (hamster, strain Syrian Golden, males, in drinking water, site: cecum, lesion: one or several types, types not named, dosed 119 weeks, study length 119 weeks) 136 mg/kg/day (inactive); (hamster, strain Syrian Golden, males, in drinking water, site: liver, lesion: hepatocellular adenoma, dosed 91 weeks, study length 91 weeks) 87.5 mg/kg/day; (hamster, strain Syrian Golden, males, in drinking water, site: liver, lesion: hepatocellular adenoma, dosed 104 weeks, study length 104 weeks) 2590 mg/kg/day; (hamster, strain Syrian Golden, males, in drinking water, site: liver, lesion: hepatocellular carcinoma, dosed 91 weeks, study length 91 weeks) 464 mg/kg/day. For the same compound, the TD50 was 181 mg/kg/day (hamster, strain Syrian Golden, males, in drinking water, site: liver, lesion: hepatocellular carcinoma, dosed 104 weeks, study length 104 weeks); 2580 mg/kg/day (hamster, strain Syrian Golden, males, in drinking water, site: liver, lesion: histiocytoma, malignant, dosed 104 weeks, study length 104 weeks); 2590 mg/kg/day (hamster, strain Syrian Golden, males, in drinking water, site: liver, lesion: reticulum-cell sarcoma, dosed 104 weeks, study length 104 weeks); 87.5 mg/kg/day (hamster, strain Syrian Golden, males, in drinking water, site: liver, lesion: several types, types named in the paper, dosed 91 weeks, study length 91 weeks); 109 mg/kg/day (mouse, strain C3H (MTV+), females, in drinking water, site: lung, lesion: adenoma, dosed 92 weeks, study length 92 weeks); 6.27 mg/kg/day (mouse, strain CBA/Cb/Se, females, by gavage, site: liver, lesion: hepatoma, dosed 36 weeks, study length 74 weeks). Moreover, the TD50 is 3.35 mg/kg/day (mouse, strain CBA/Cb/Se, females, by gavage, site: lung, lesion: several types, types named in the paper, dosed 36 weeks, study length 74 weeks); 8.43 mg/kg/day (mouse, strain CBA/Cb/Se, males, by gavage, site: liver, lesion: hepatoma, dosed 36 weeks, study length 84 weeks); 5.1 mg/kg/day (mouse, strain CBA/Cb/Se, males, by gavage, site: lung, lesion: several types, types named in the paper, dosed 36 weeks, study length 84 weeks); 10.3 mg/kg/day (mouse, strain ICRC x C3H (Jax), females, by gavage, site: lung, lesion: adenocarcinoma, dosed 73 weeks, study length 73 weeks); 79.5 mg/kg/day (mouse, strain ICRC x C3H (Jax), males, by gavage, site: lung, lesion: adenocarcinoma, dosed 73 weeks, study length 73 weeks); 146 mg/kg/day (mouse, strain Swiss albino, females, in drinking water, site: lung, lesion: adenocarcinoma, dosed 95 weeks, study length 95 weeks). Moreover, the TD50 is, setting by setting: (mouse, strain Swiss albino, females, in drinking water, site: lung, lesion: adenoma, dosed 95 weeks, study length 95 weeks) 26.7 mg/kg/day; (mouse, strain Swiss albino, females, in drinking water, site: lung, lesion: several types, types named in the paper, dosed 95 weeks, study length 95 weeks) 23.8 mg/kg/day; (mouse, strain Swiss albino, males, in drinking water, site: liver, lesion: several types, types named in the paper, dosed 94 weeks, study length 94 weeks) 78.4 mg/kg/day; (mouse, strain Swiss albino, males, in drinking water, site: lung, lesion: adenocarcinoma, dosed 94 weeks, study length 94 weeks) 74.2 mg/kg/day; (mouse, strain Swiss albino, males, in drinking water, site: lung, lesion: adenoma, dosed 94 weeks, study length 94 weeks) 23.1 mg/kg/day; (mouse, strain Swiss albino, males, in drinking water, site: lung, lesion: several types, types named in the paper, dosed 94 weeks, study length 94 weeks) 18.7 mg/kg/day. The TD50 is 9.81 mg/kg/day (mouse, strain Swiss, both sexes, by gavage, site: lung, lesion: adenocarcinoma, dosed 95 weeks, study length 95 weeks); 3.92 mg/kg/day (mouse, strain Swiss, both sexes, by gavage, site: lung, lesion: one or several types, types not named, dosed 54 weeks, study length 54 weeks); 42.4 mg/kg/day (rat, strain Cb/Sc, females, by gavage, site: lung, lesion: several types, types named in the paper, dosed 68 weeks, study length 94 weeks); 39.4 mg/kg/day (rat, strain Cb/Sc, males, by gavage, site: liver, lesion: several types, types named in the paper, dosed 68 weeks, study length 94 weeks); 60.1 mg/kg/day (rat, strain Cb/Sc, males, by gavage, site: lung, lesion: several types, types named in the paper, dosed 68 weeks, study length 94 weeks). In addition, the carcinogen call was “negative (inactive)” (hamster, strain Syrian Golden, males, in drinking water, site: liver, lesion: hemangioma, dosed 119 weeks, study length 119 weeks); “negative (inactive)” (mouse, strain AKR, females, in drinking water, site: liver, lesion: one or several types, types not named, dosed 69 weeks, study length 69 weeks); “negative (inactive)” (mouse, strain AKR, females, in drinking water, site: lung, lesion: one or several types, types not named, dosed 69 weeks, study length 69 weeks); “negative (inactive)” (mouse, strain AKR, males, in drinking water, site: liver, lesion: hemangioma, dosed 69 weeks, study length 69 weeks); “negative (inactive)” (mouse, strain AKR, males, in drinking water, site: lung, lesion: adenoma, dosed 69 weeks, study length 69 weeks); “negative (inactive)” (mouse, strain ICRC x C3H (Jax), females, by gavage, site: liver, lesion: one or several types, types not named, dosed 73 weeks, study length 73 weeks). The carcinogen call by setting is: (mouse, strain ICRC x C3H (Jax), males, by gavage, site: liver, lesion: one or several types, types not named, dosed 73 weeks, study length 73 weeks) “negative (inactive)”; (mouse, strain Swiss albino, females, in drinking water, site: liver, lesion: hemangioma, dosed 95 weeks, study length 95 weeks) “negative (inactive)”.
For the compound `CC(O)CNCC(C)O` (stereo unspecified), the carcinogen call (rat, strain Wistar, males, in feed, site: liver, lesion: hepatocellular carcinoma, dosed 94 weeks, study length 94 weeks) was “negative (inactive)”; the carcinogen call (rat, strain Wistar, males, in feed, site: lung, lesion: one or several types, types not named, dosed 94 weeks, study length 94 weeks) was “negative (inactive)”; the carcinogen call (rat, strain Wistar, males, in feed, site: nasal cavity, lesion: one or several types, types not named, dosed 94 weeks, study length 94 weeks) was “negative (inactive)”.
For the compound `CC1CN(N=O)CC(C)N1C(=O)c1ccccc1` (stereo unspecified), under “rat, strain Fischer 344, females, in drinking water, site: any site (literature study), lesion: several types, types named in the paper, dosed 50 weeks, study length 125 weeks”, the carcinogen call was “positive”. In addition, the TD50 is 26.4 mg/kg/day (rat, strain Fischer 344, females, in drinking water, site: forestomach, lesion: basal-cell carcinoma, dosed 50 weeks, study length 125 weeks); 9.66 mg/kg/day (rat, strain Fischer 344, females, in drinking water, site: forestomach, lesion: papilloma, dosed 50 weeks, study length 125 weeks); 9.1 mg/kg/day (rat, strain Fischer 344, females, in drinking water, site: liver, lesion: one or several types, types not named, dosed 50 weeks, study length 125 weeks).
As for `CC(=O)CN(C)N=O`, the TD50 by setting is: (rat, strain MRC, females, by gavage, site: esophagus, lesion: several types, types named in the paper, dosed 67 weeks, study length 76 weeks) 0.16 mg/kg/day; (rat, strain MRC, females, by gavage, site: liver, lesion: several types, types named in the paper, dosed 67 weeks, study length 76 weeks) 0.268 mg/kg/day; (rat, strain MRC, females, by gavage, site: nasal and paranasal cavity, lesion: several types, types named in the paper, dosed 67 weeks, study length 76 weeks) 0.0167 mg/kg/day; (rat, strain MRC, females, by gavage, site: pharynx, lesion: several types, types named in the paper, dosed 67 weeks, study length 76 weeks) 0.0758 mg/kg/day; (rat, strain MRC, males, by gavage, site: esophagus, lesion: several types, types named in the paper, dosed 51 weeks, study length 58 weeks) 0.0642 mg/kg/day; (rat, strain MRC, males, by gavage, site: liver, lesion: several types, types named in the paper, dosed 51 weeks, study length 58 weeks) 0.252 mg/kg/day. Moreover, the TD50 (rat, strain MRC, males, by gavage, site: nasal and paranasal cavity, lesion: several types, types named in the paper, dosed 51 weeks, study length 58 weeks) was 0.0178 mg/kg/day; the TD50 (rat, strain MRC, males, by gavage, site: nasopharynx, lesion: papilloma, dosed 51 weeks, study length 58 weeks) turned out to be 0.942 mg/kg/day; the TD50 (rat, strain MRC, males, by gavage, site: pharynx, lesion: several types, types named in the paper, dosed 51 weeks, study length 58 weeks) is 0.023 mg/kg/day.
Consider `CN(C)N=Nc1ccccc1`, for which the TD50 by setting is: (rat, strain BD, both sexes, by gavage, site: any site (literature study), lesion: malignant tumor, dosed 104 weeks, study length 104 weeks) 2.31 mg/kg/day; (rat, strain BD, both sexes, by gavage, site: brain, lesion: several types, types named in the paper, dosed 104 weeks, study length 104 weeks) 5.81 mg/kg/day.
Consider `ClCOCCOCCl`, for which, under “mouse, strain Ha/ICR, females, i.p., site: abdomen, lesion: several types, types named in the paper, dosed 78 weeks, study length 78 weeks”, the TD50 was 4.62 mg/kg/day.
On to `O=C1c2cccc(O)c2C(=O)c2c(O)cccc21`, for which the TD50 is 201 mg/kg/day (mouse, strain C3H/HeN, males, in feed, site: liver, lesion: hepatocellular adenoma, dosed 77 weeks, study length 77 weeks); 336 mg/kg/day (mouse, strain C3H/HeN, males, in feed, site: liver, lesion: hepatocellular carcinoma, dosed 77 weeks, study length 77 weeks); 201 mg/kg/day (mouse, strain C3H/HeN, males, in feed, site: liver, lesion: several types, types named in the paper, dosed 77 weeks, study length 77 weeks); 245 mg/kg/day (rat, strain ACI, males, in feed, site: large intestine, lesion: several types, types named in the paper, dosed 69 weeks, study length 69 weeks).
As to `NC(=O)N/N=C/c1ccco1`, the TD50 (rat, strain Sprague-Dawley, females, in feed, site: mammary gland, lesion: fibroadenoma, dosed 46 weeks, study length 66 weeks) was 48.8 mg/kg/day (inactive).

As a reminder, the TD50 is the dose at which the toxic effect under study appears in half of the subjects.
